In patent publication US10456379B2, “Imidazole-based antimicrobial agents” (priority 2014, dated 2019):
In brackets after ≈: the same amount, converted by molar mass.

tested on: vancomycin-resistant Enterococcus faecalis (ATCC51575); assay: microbe, parasite or virus in culture; assay type: cell-based; details: ATCC51575; vancomycin-resistant Enterococcus faecalis; read-out: Antibacterial activity, VREFs (vancomycin-resistant EFs), MIC class

Compound	MIC [µg/mL]
Cc1ccccc1-c1c[nH]c(-c2ccc(-c3ccccc3OC(F)(F)F)o2)n1 [compound 66]	20 to 50 (≈ 52 to 130 µM)
Cc1[nH]c(-c2ccc(-c3ccccc3OC(F)(F)F)o2)nc1-c1ccc(Cl)cc1 [compound 24]	20 to 50 (≈ 47.8 to 119 µM)
CN(C)Cc1[nH]c(-c2ccc(-c3ccccc3C(F)(F)F)o2)nc1-c1ccccc1 [compound 70]	11 to 20 (≈ 26.7 to 48.6 µM)
Cc1nc(-c2ccc(-c3ccc(C(F)(F)F)cc3)o2)[nH]c1-c1ccccc1 [compound 45]	20 to 50 (≈ 54.3 to 136 µM)

same assay, conditions: Enterococcus faecalis, ATCC51575, read-out: Antibacterial activity, VREFs (vancomycin-resistant EFs), MIC class

Compound	MIC [µg/mL]
Cc1[nH]c(-c2ccc(-c3ccc(C(F)(F)F)c(Cl)c3)o2)nc1-c1ccc(F)cc1 [compound 49]	20 to 50 (≈ 47.5 to 119 µM)

tested on: Escherichia coli TolC mutant strain ΔtolC; assay: not given; assay type: cell-based; details: not given

Compound	Antibacterial activity, EC Δ (Escherichia coli ΔtoIC), MIC class
CN(C)Cc1[nH]c(-c2ccc(-c3ccccc3C(F)(F)F)o2)nc1-c1ccccc1 [compound 70]	3 (MIC100 of 3-10 μg/ml)

tested on: vancomycin-resistant Enterococcus faecium (ATCC51559); assay: microbe, parasite or virus in culture; assay type: cell-based; details: ATCC51559; vancomycin-resistant Enterococcus faecium; read-out: Antibacterial activity, VREFm (vancomycin-resistant EFm), MIC class

Compound	MIC [µg/mL]
Cc1ccccc1-c1c[nH]c(-c2ccc(-c3ccccc3OC(F)(F)F)o2)n1 [compound 66]	20 to 50 (≈ 52 to 130 µM)
Cc1nc(-c2ccc(-c3ccc(Cl)cc3C(F)(F)F)o2)[nH]c1-c1ccccc1 [compound 32]	20 to 50 (≈ 49.7 to 124 µM)
Cc1nc(-c2ccc(-c3cccc(OC(F)(F)F)c3)o2)[nH]c1-c1ccccc1 [compound 34]	20 to 50 (≈ 52 to 130 µM)
CN(C)Cc1[nH]c(-c2ccc(-c3ccccc3C(F)(F)F)o2)nc1-c1ccccc1 [compound 70]	11 to 20 (≈ 26.7 to 48.6 µM)
Cc1nc(-c2ccc(-c3ccc(Cl)cc3Cl)o2)[nH]c1-c1ccccc1 [compound 1]	20 to 50 (≈ 54.2 to 135 µM)

same assay, conditions: Enterococcus faecium, ATCC51559, read-out: Antibacterial activity, VREFm (vancomycin-resistant EFm), MIC class

Compound	MIC [µg/mL]
Cc1[nH]c(-c2ccc(-c3ccc(C(F)(F)F)c(Cl)c3)o2)nc1-c1ccc(F)cc1 [compound 49]	20 to 50 (≈ 47.5 to 119 µM)

tested on: Staphylococcus aureus MSSA (Newman); assay: Broth microdilution MIC assay, Staphylococcus aureus MSSA (Newman); assay type: cell-based; details: MIC class score, MIC100, broth microdilution, Newman strain

Compound	Antibacterial activity Staphylococcus aureus (MSSA)
Cc1[nH]c(-c2ccc(-c3ccc(C(F)(F)F)c(Cl)c3)o2)nc1-c1ccc(F)cc1 [compound 49]	3 (MIC100 of 3-10 μg/ml)
Cc1ccccc1-c1c[nH]c(-c2ccc(-c3ccccc3OC(F)(F)F)o2)n1 [compound 66]	3 (MIC100 of 3-10 μg/ml)
FC(F)(F)Oc1ccccc1-c1ccc(-c2nc(Cl)c(-c3ccccc3)[nH]2)o1 [compound 64]	2 (MIC100 of 11-20 μg/ml)

tested on: Enterococcus faecium (AGR15, ATCCBAA-2127); assay: Broth microdilution MIC assay, Enterococcus faecium; assay type: cell-based; details: ATCCBAA2127, read-out: Antibacterial activity, EFm (Enterococcus faecium), MIC class

Compound	MIC [µg/mL]
Cc1[nH]c(-c2ccc(-c3ccc(C(F)(F)F)c(Cl)c3)o2)nc1-c1ccc(F)cc1 [compound 49]	20 to 50 (≈ 47.5 to 119 µM)
CN(C)Cc1[nH]c(-c2ccc(-c3ccccc3C(F)(F)F)o2)nc1-c1ccccc1 [compound 70]	11 to 20 (≈ 26.7 to 48.6 µM)

tested on: linezolid-resistant Staphylococcus aureus (from MRSA COL); assay: Broth microdilution MIC assay, linezolid-resistant MRSA; assay type: cell-based; details: 24 h, read-out: Antibacterial activity, MRSA strains with additional resistance, L (linezolid), MIC class

Compound	MIC [µg/mL]
Cc1[nH]c(-c2ccc(-c3ccc(C(F)(F)F)c(Cl)c3)o2)nc1-c1ccc(F)cc1 [compound 49]	11 to 20 (≈ 26.1 to 47.5 µM)
Cc1ccccc1-c1c[nH]c(-c2ccc(-c3ccccc3OC(F)(F)F)o2)n1 [compound 66]	1 to 3 (≈ 2.6 to 7.81 µM)
Cc1nc(-c2ccc(-c3ccc(C(F)(F)F)cc3)o2)[nH]c1-c1ccccc1 [compound 45]	1 to 3 (≈ 2.71 to 8.14 µM)

tested on: Streptococcus pneumoniae (Chester, ATCC49619); assay: Broth microdilution MIC assay, Streptococcus pneumoniae; assay type: cell-based; details: MIC class score, MIC100, broth microdilution

Compound	Antibacterial activity Streptococcus pneumoniae
Cc1[nH]c(-c2ccc(-c3ccc(C(F)(F)F)c(Cl)c3)o2)nc1-c1ccc(F)cc1 [compound 49]	3 (MIC100 of 2-5 μg/ml)
Cc1[nH]c(-c2ccc(-c3ccc(Cl)cc3)s2)nc1-c1ccccc1 [compound 6]	3 (MIC100 of 2-5 μg/ml)
Cc1nc(-c2ccc(-c3ccc(Cl)cc3C(F)(F)F)o2)[nH]c1-c1ccccc1 [compound 32]	3 (MIC100 of 2-5 μg/ml)
Cc1nc(-c2ccc(-c3cccc(OC(F)(F)F)c3)o2)[nH]c1-c1ccccc1 [compound 34]	3 (MIC100 of 2-5 μg/ml)
CN(C)Cc1[nH]c(-c2ccc(-c3ccccc3C(F)(F)F)o2)nc1-c1ccccc1 [compound 70]	3 (MIC100 of 2-5 μg/ml)

same assay, conditions: Streptococcus pneumoniae, ATCC49619; read-out: Antibacterial activity, SP (Streptococcus pneumoniae), MIC class

Compound	MIC [µg/mL]
Cc1[nH]c(-c2ccc(-c3ccc(C(F)(F)F)c(Cl)c3)o2)nc1-c1ccc(F)cc1 [compound 49]	2 to 5 (≈ 4.75 to 11.9 µM)
Cc1ccccc1-c1c[nH]c(-c2ccc(-c3ccccc3OC(F)(F)F)o2)n1 [compound 66]	< 1
Cc1nc(-c2ccc(-c3ccc(Cl)cc3C(F)(F)F)o2)[nH]c1-c1ccccc1 [compound 32]	2 to 5 (≈ 4.97 to 12.4 µM)
Cc1nc(-c2ccc(-c3cccc(OC(F)(F)F)c3)o2)[nH]c1-c1ccccc1 [compound 34]	2 to 5 (≈ 5.2 to 13 µM)
CN(C)Cc1[nH]c(-c2ccc(-c3ccccc3C(F)(F)F)o2)nc1-c1ccccc1 [compound 70]	2 to 5 (≈ 4.86 to 12.2 µM)
Cc1nc(-c2ccc(-c3ccc(C(F)(F)F)cc3)o2)[nH]c1-c1ccccc1 [compound 45]	< 1
FC(F)(F)Oc1ccccc1-c1ccc(-c2nc(Cl)c(-c3ccccc3)[nH]2)o1 [compound 64]	< 1

tested on: vancomycin-resistant Staphylococcus aureus (from MRSA COL); assay: Broth microdilution MIC assay, vancomycin-resistant MRSA; assay type: cell-based; details: 24 h, read-out: Antibacterial activity, MRSA strains with additional resistance, V (vancomycin), MIC class

Compound	MIC [µg/mL]
Cc1[nH]c(-c2ccc(-c3ccccc3OC(F)(F)F)o2)nc1-c1ccc(Cl)cc1 [compound 24]	1 to 3 (≈ 2.39 to 7.16 µM)
Cc1nc(-c2ccc(-c3ccc(C(F)(F)F)cc3)o2)[nH]c1-c1ccccc1 [compound 45]	1 to 3 (≈ 2.71 to 8.14 µM)
FC(F)(F)Oc1ccccc1-c1ccc(-c2nc(Cl)c(-c3ccccc3)[nH]2)o1 [compound 64]	1 to 3 (≈ 2.47 to 7.41 µM)

tested on: Mycobacterium smegmatis (mc(2)155); assay: Broth microdilution MIC assay, Mycobacterium smegmatis; details: not given

Compound	Antibacterial activity, MS (Mycobacterium smegmatis), MIC class
Cc1ccccc1-c1c[nH]c(-c2ccc(-c3ccccc3OC(F)(F)F)o2)n1 [compound 66]	2 (MIC100 of 11-20 μg/ml)
Cc1[nH]c(-c2ccc(-c3ccc(Cl)cc3)s2)nc1-c1ccccc1 [compound 6]	2 (MIC100 of 11-20 μg/ml)
Cc1nc(-c2ccc(-c3cccc(OC(F)(F)F)c3)o2)[nH]c1-c1ccccc1 [compound 34]	2 (MIC100 of 11-20 μg/ml)
Cc1nc(-c2ccc(-c3ccc(Cl)cc3Cl)o2)[nH]c1-c1ccccc1 [compound 1]	2 (MIC100 of 11-20 μg/ml)

tested on: Bacillus subtilis (Marburg strain, ATCC6051); assay: microbe, parasite or virus in culture; assay type: cell-based; details: ATCC6051, read-out: Antibacterial activity, BS (Bacillus substilis), MIC class

Compound	MIC [µg/mL]
Cc1[nH]c(-c2ccc(-c3ccc(Cl)cc3)s2)nc1-c1ccccc1 [compound 6]	11 to 20 (≈ 31.4 to 57 µM)
Cc1nc(-c2ccc(-c3ccc(Cl)cc3C(F)(F)F)o2)[nH]c1-c1ccccc1 [compound 32]	3 to 10 (≈ 7.45 to 24.8 µM)

tested on: Staphylococcus epidermidis (PCI 1200, ATCC12228); assay: Broth microdilution MIC assay, Staphylococcus epidermidis; assay type: cell-based; details: read-out: Antibacterial activity, SE (Staphylococcus epidermidis), MIC class

Compound	MIC [µg/mL]
Cc1[nH]c(-c2ccc(-c3ccc(C(F)(F)F)c(Cl)c3)o2)nc1-c1ccc(F)cc1 [compound 49]	11 to 20 (≈ 26.1 to 47.5 µM)
CN(C)Cc1[nH]c(-c2ccc(-c3ccccc3C(F)(F)F)o2)nc1-c1ccccc1 [compound 70]	11 to 20 (≈ 26.7 to 48.6 µM)

tested on: daptomycin-resistant Staphylococcus aureus (from MRSA COL); assay: Broth microdilution MIC assay, daptomycin-resistant MRSA; assay type: cell-based; details: 24 h, read-out: Antibacterial activity, MRSA strains with additional resistance, D (daptomycin), MIC class

Compound	MIC [µg/mL]
Cc1[nH]c(-c2ccc(-c3ccc(C(F)(F)F)c(Cl)c3)o2)nc1-c1ccc(F)cc1 [compound 49]	1 to 3 (≈ 2.38 to 7.13 µM)
Cc1ccccc1-c1c[nH]c(-c2ccc(-c3ccccc3OC(F)(F)F)o2)n1 [compound 66]	1 to 3 (≈ 2.6 to 7.81 µM)
Cc1[nH]c(-c2ccc(-c3ccccc3OC(F)(F)F)o2)nc1-c1ccc(Cl)cc1 [compound 24]	1 to 3 (≈ 2.39 to 7.16 µM)
CN(C)Cc1[nH]c(-c2ccc(-c3ccccc3C(F)(F)F)o2)nc1-c1ccccc1 [compound 70]	3 to 10 (≈ 7.29 to 24.3 µM)
Cc1nc(-c2ccc(-c3ccc(C(F)(F)F)cc3)o2)[nH]c1-c1ccccc1 [compound 45]	1 to 3 (≈ 2.71 to 8.14 µM)
FC(F)(F)Oc1ccccc1-c1ccc(-c2nc(Cl)c(-c3ccccc3)[nH]2)o1 [compound 64]	1 to 3 (≈ 2.47 to 7.41 µM)

tested on: MRSA (COL) resistant to triclosan; assay: Broth microdilution MIC assay, triclosan-resistant MRSA; details: Staphylococcus aureus, read-out: Antibacterial activity, MRSA strains with additional resistance, T (triclosan), MIC class

Compound	MIC [µg/mL]
Cc1[nH]c(-c2ccc(-c3ccc(C(F)(F)F)c(Cl)c3)o2)nc1-c1ccc(F)cc1 [compound 49]	1 to 3 (≈ 2.38 to 7.13 µM)
Cc1nc(-c2ccc(-c3cccc(OC(F)(F)F)c3)o2)[nH]c1-c1ccccc1 [compound 34]	3 to 10 (≈ 7.81 to 26 µM)
Cc1[nH]c(-c2ccc(-c3ccccc3OC(F)(F)F)o2)nc1-c1ccc(Cl)cc1 [compound 24]	1 to 3 (≈ 2.39 to 7.16 µM)

tested on: Staphylococcus aureus MRSA (COL); assay: Broth microdilution MIC assay, Staphylococcus aureus MRSA (COL); assay type: cell-based; details: MIC class score, MIC100, broth microdilution, COL strain

Compound	Antibacterial activity Staphylococcus aureus (MRSA)
Cc1[nH]c(-c2ccc(-c3ccc(C(F)(F)F)c(Cl)c3)o2)nc1-c1ccc(F)cc1 [compound 49]	2 (MIC100 of 11-20 μg/ml)
Cc1ccccc1-c1c[nH]c(-c2ccc(-c3ccccc3OC(F)(F)F)o2)n1 [compound 66]	2 (MIC100 of 11-20 μg/ml)

tested on: platensimycin-resistant Staphylococcus aureus (from MRSA COL); assay: Broth microdilution MIC assay, platensimycin-resistant MRSA; assay type: cell-based; details: 24 h, read-out: Antibacterial activity, MRSA strains with additional resistance, P (platensimycin), MIC class

Compound	MIC [µg/mL]
Cc1ccccc1-c1c[nH]c(-c2ccc(-c3ccccc3OC(F)(F)F)o2)n1 [compound 66]	11 to 20 (≈ 28.6 to 52 µM)
Cc1nc(-c2ccc(-c3cccc(OC(F)(F)F)c3)o2)[nH]c1-c1ccccc1 [compound 34]	11 to 20 (≈ 28.6 to 52 µM)
Cc1[nH]c(-c2ccc(-c3ccccc3OC(F)(F)F)o2)nc1-c1ccc(Cl)cc1 [compound 24]	11 to 20 (≈ 26.3 to 47.8 µM)
Cc1nc(-c2ccc(-c3ccc(Cl)cc3Cl)o2)[nH]c1-c1ccccc1 [compound 1]	3 to 10 (≈ 8.12 to 27.1 µM)

tested on: moenomycin-resistant Staphylococcus aureus (from MRSA COL); assay: Broth microdilution MIC assay, moenomycin-resistant MRSA; assay type: cell-based; details: 24 h, read-out: Antibacterial activity, MRSA strains with additional resistance, M (moenomycin), MIC class

Compound	MIC [µg/mL]
Cc1nc(-c2ccc(-c3cccc(OC(F)(F)F)c3)o2)[nH]c1-c1ccccc1 [compound 34]	3 to 10 (≈ 7.81 to 26 µM)
Cc1nc(-c2ccc(-c3ccc(Cl)cc3Cl)o2)[nH]c1-c1ccccc1 [compound 1]	3 to 10 (≈ 8.12 to 27.1 µM)
FC(F)(F)Oc1ccccc1-c1ccc(-c2nc(Cl)c(-c3ccccc3)[nH]2)o1 [compound 64]	1 to 3 (≈ 2.47 to 7.41 µM)

tested on: Enterococcus faecalis (ATCC29212); assay: Broth microdilution MIC assay, Enterococcus faecalis; assay type: cell-based; details: read-out: Antibacterial activity, EFs (Enterococcus faecalis), MIC class

Compound	MIC [µg/mL]
Cc1[nH]c(-c2ccc(-c3ccc(C(F)(F)F)c(Cl)c3)o2)nc1-c1ccc(F)cc1 [compound 49]	11 to 20 (≈ 26.1 to 47.5 µM)
Cc1nc(-c2ccc(-c3cccc(OC(F)(F)F)c3)o2)[nH]c1-c1ccccc1 [compound 34]	20 to 50 (≈ 52 to 130 µM)
Cc1[nH]c(-c2ccc(-c3ccccc3OC(F)(F)F)o2)nc1-c1ccc(Cl)cc1 [compound 24]	20 to 50 (≈ 47.8 to 119 µM)
CN(C)Cc1[nH]c(-c2ccc(-c3ccccc3C(F)(F)F)o2)nc1-c1ccccc1 [compound 70]	11 to 20 (≈ 26.7 to 48.6 µM)
